Patent US10087217B2 (priority 2013, dated 2018)

Tested on: U87 cells
Experiment: Competitive inhibition of integrin targeted transduction mediated by AAV2^N587+1/azido+RGD
Assay type: cell-based

dibenzocyclooctyne [DIBO]
competitive inhibition of DIBO-RGD coupling effect: competitively inhibit
